Consider 18 compounds from US20210115018A1, “PIPERIDINE COMPOUNDS AS COVALENT MENIN INHIBITORS” (THE REGENTS OF THE UNIVERSITY OF MICHIGAN, priority 2018, published 2021).

Each structure is given as a SMILES string.

One assay concerns the target T1, menin protein (Homo sapiens, UniProt O00255).
T1 sequence (O00255 1-610): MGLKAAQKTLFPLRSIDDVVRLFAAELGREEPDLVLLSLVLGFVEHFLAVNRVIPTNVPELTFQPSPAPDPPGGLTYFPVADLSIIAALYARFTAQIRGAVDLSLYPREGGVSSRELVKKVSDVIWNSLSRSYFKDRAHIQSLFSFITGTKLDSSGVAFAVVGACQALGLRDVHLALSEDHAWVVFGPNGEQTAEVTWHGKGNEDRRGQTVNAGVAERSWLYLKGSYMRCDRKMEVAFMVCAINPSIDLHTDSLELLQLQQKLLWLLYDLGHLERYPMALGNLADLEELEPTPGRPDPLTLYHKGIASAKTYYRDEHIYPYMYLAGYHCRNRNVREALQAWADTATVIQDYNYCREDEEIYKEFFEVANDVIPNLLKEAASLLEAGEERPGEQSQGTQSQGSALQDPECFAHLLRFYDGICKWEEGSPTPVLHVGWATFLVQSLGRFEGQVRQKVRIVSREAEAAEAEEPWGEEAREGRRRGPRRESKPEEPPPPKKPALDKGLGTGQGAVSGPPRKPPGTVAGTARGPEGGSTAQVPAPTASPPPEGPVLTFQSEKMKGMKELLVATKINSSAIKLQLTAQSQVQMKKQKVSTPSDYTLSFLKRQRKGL
The assay can be described thus: Fluorescence polarization (FP) competitive binding assay, menin binding affinity. To be noted: FP competition with FAM-MM2 probe 2 nM, menin 4 nM, 30 minutes room temperature. How it is done: A fluorescence polarization (FP) competitive binding assay was used to determine the binding affinities of representative menin inhibitors. A FAM labeled fluorescent probe was designed and synthesized based on a MLL1 peptide (FAM-MM2). Equilibrium dissociation constant (Kd) value of FAM-MM2 to menin protein was determined from protein saturation experiments by monitoring the total fluorescence polarization of mixtures composed with the fluorescent probe at a fixed concentration and the protein with increasing concentrations up to full saturation. Serial dilutions of the protein were mixed with FAM-MM2 to a final volume of 200 μl in the assay buffer (PBS with 0.02% Bovine γ-Globulin and 4% DMSO. 0.01% Triton X-100 was added right before assays). Final FAM-MM2 concentration was 2 nM. Plates were incubated at room temperature for 30 minutes with gentle shaking to assure equilibrium. FP values in millipolarization units (mP) were measured using the Infinite M-1000 plate reader (Tecan U.S., Research Triangle Park, N.C.) in Microfluor 1 96-well, black, v-bottom plates (Thermo Scientific, Waltham, Mass.) at an excitation wavelength of 485 nm and an emission wavelength of 530 nm.
The IC50 of representative Compounds of the Disclosure, see Table 3, were determined in a competitive binding experiment. Mixtures of 5 μl of the tested compounds in DMSO and 195 μl of preincubated protein/probe complex solution in the assay buffer were added into assay plates which were incubated at room temperature for 30 minutes with gentle shaking. Final concentration of the menin protein was 4 nM, and final probe concentration is 2 nM. Negative controls containing protein/probe complex only (equivalent to 0% inhibition), and positive controls containing only free probes (equivalent to 100% inhibition), were included in each assay plate. FP values were measured as described above. IC50 values were determined by nonlinear regression fitting of the competition curves.
In the case of `C=CC(=O)N1CC(S(=O)(=O)c2ccc(N3CC(CN4CCC([C@@](CN(C)C)(c5cccc(F)c5)[C@H]5CCC[C@@H]5NC(=O)OC)CC4)C3)cc2)C1` [Cpd. No. 1, methyl ((1S,2R)-2-((S)-1-(1-((1-(4-((1-acryloylazetidin-3-yl)sulfonyl)phenyl)azetidin-3-yl)methyl)piperidin-4-yl)-2-(dimethylamino)-1-(3-fluorophenyl)ethyl)cyclopentyl)carbamate], the IC50 (in general, the concentration that inhibits the measured activity by half) stood at 2 nM.

In the case of `COC(=O)N[C@H]1CCC[C@@H]1[C@](CN1CCCCC1)(c1cccc(F)c1)C1CCN(CC2CN(c3ccc(S(=O)(=O)C4CN(C(=O)/C=C/CN(C)C)C4)cc3)C2)CC1` [Cpd. No. 4, methyl ((1S,2R)-2-((S)-1-(1-((1-(4-((1-((E)-4-(dimethylamino)but-2-enoyl)azetidin-3-yl)sulfonyl)phenyl)azetidin-3-yl)methyl)piperidin-4-yl)-1-(3-fluorophenyl)-2-(piperidin-1-yl)ethyl)cyclopentyl)carbamate], the IC50 was found to be 2 nM.

Take `COC(=O)N[C@H]1CCC[C@@H]1[C@](CN1CCOCC1)(c1cccc(F)c1)C1CCN(CC2CN(c3ccc(S(=O)(=O)C4CN(C(=O)/C=C/CN(C)C)C4)cc3)C2)CC1` [Cpd. No. 6, methyl ((1S,2R)-2-((S)-1-(1-((1-(4-((1-((E)-4-(dimethylamino)but-2-enoyl)azetidin-3-yl)sulfonyl)phenyl)azetidin-3-yl)methyl)piperidin-4-yl)-1-(3-fluorophenyl)-2-morpholinoethyl)cyclopentyl)carbamate]: the IC50 came to 2 nM.

With `COC(=O)N[C@H]1CCC[C@@H]1[C@](CN1CCC(C)(O)CC1)(c1cccc(F)c1)C1CCN(CC2CN(c3ccc(S(=O)(=O)C4CN(C(=O)/C=C/CN(C)C)C4)cc3)C2)CC1` [Cpd. No. 8, methyl ((1S,2R)-2-((S)-1-(1-((1-(4-((1-((E)-4-(dimethylamino)but-2-enoyl)azetidin-3-yl)sulfonyl)phenyl)azetidin-3-yl)methyl)piperidin-4-yl)-1-(3-fluorophenyl)-2-(4-hydroxy-4-methylpiperidin-1-yl)ethyl)cyclopentyl)carbamate], the half-inhibitory concentration (IC50) came out at 2 nM.

As for `C=C(CN(C)C)C(=O)N1CC(S(=O)(=O)c2ccc(N3CC(CN4CCC([C@@](CN5CCC5)(c5cccc(F)c5)[C@H]5CCC[C@@H]5NC(=O)OC)CC4)C3)cc2)C1` [Cpd. No. 10, methyl ((1S,2R)-2-((S)-2-(azetidin-1-yl)-1-(1-((1-(4-((1-(2-((dimethylamino)methyl)acryloyl)azetidin-3-yl)sulfonyl)phenyl)azetidin-3-yl)methyl)piperidin-4-yl)-1-(3-fluorophenyl)ethyl)cyclopentyl)carbamate], the 50% inhibitory concentration (IC50) came to 3 nM.

Turning to `COC(=O)N[C@H]1CCC[C@@H]1[C@](CN1CCC1)(c1cc(F)cc(F)c1)C1CCN(CC2(F)CN(c3ccc(S(=O)(=O)C4CN(C(=O)/C=C/CN(C)C)C4)cc3)C2)CC1` [Cpd. No. 11, methyl ((1S,2R)-2-((S)-2-(azetidin-1-yl)-1-(3,5-difluorophenyl)-1-(1-((1-(4-((1-((E)-4-(dimethylamino)but-2-enoyl)azetidin-3-yl)sulfonyl)phenyl)-3-fluoroazetidin-3-yl)methyl)piperidin-4-yl)ethyl)cyclopentyl)carbamate], the IC50 is 2 nM.

`C=CC(=O)N1CC(S(=O)(=O)c2ccc(N3CC(CN4CCC([C@@](CN5CCC5)(c5cccc(F)c5)[C@H]5CCC[C@@H]5NC(=O)OC)CC4)C3)cc2)C1` [Cpd. No. 14, methyl ((1S,2R)-2-((S)-1-(1-((1-(4-((1-acryloylazetidin-3-yl)sulfonyl)phenyl)azetidin-3-yl)methyl)piperidin-4-yl)-2-(azetidin-1-yl)-1-(3-fluorophenyl)ethyl)cyclopentyl)carbamate]: the IC50 was 2 nM.

`C#CC(=O)N1CC(S(=O)(=O)c2ccc(N3CC(CN4CCC([C@@](CN5CCC5)(c5cccc(F)c5)[C@H]5CCC[C@@H]5NC(=O)OC)CC4)C3)cc2)C1` [Cpd. No. 15, methyl ((1S,2R)-2-((S)-2-(azetidin-1-yl)-1-(3-fluorophenyl)-1-(1-((1-(4-((1-propioloylazetidin-3-yl)sulfonyl)phenyl)azetidin-3-yl)methyl)piperidin-4-yl)ethyl)cyclopentyl)carbamate]: the IC50 amounted to 3 nM.

For another assay, the system named is MV4-11. The assay can be described thus: 7-day proliferation assay (WST-8), cell growth inhibition. Type of assay: cell-based. Conditions: Homo sapiens, MV4-11, 168 h, MV4-11 cells, 7 days. How it is done:
The effect of representative Compounds of the Disclosure on cell viability was determined in a 7-day proliferation assay. Cells were maintained in the appropriate culture medium with 10% FBS at 37° C. and an atmosphere of 5% CO2.
Cells were seeded in 96-well flat bottom (Corning COSTAR, Corning, NY, cat#3595) at a density of 2,000-3,000 cells/well in 100 μl of culture medium. Compounds were serially diluted in the appropriate medium, and […] the diluted compounds were added to the appropriate wells of the cell plate. After the addition of compounds, the cells were incubated at 37° C. in an atmosphere of 5% CO2 for 7 days. Cell viability was determined using the WST (2-(2-methoxy-4-nitrophenyl)-3-(4-nitrophenyl)-5-(2,4-disulfophenyl)-2H-tetrazolium, monosodium salt) Cell Counting-8 Kit (Dojindo Molecular Technologies, Inc., Rockville, Md.) according to the manufacturers' instructions.
WST-8 reagent was added to each well at a final concentration of 10% (v/v), and then the plates were incubated at 37° C. for 1-2 hours for color development. The absorbance was measured at 450 nm using a SPECTRAmax PLUS plate reader (Molecular Devices, Sunnyvale, Calif.). The readings were normalized to the DMSO-treated cells and the half maximal inhibitory concentration (IC50) was calculated by nonlinear regression (four parameters sigmoid fitted with variable slope, least squares fit, and no constraint) analysis using the GraphPad Prism 5 software (GraphPad Software, La Jolla, Calif.).
(Tetrazolium assays rely on reduction of a dye to a coloured formazan, in cell work by metabolically active cells.)
Take `C=CC(=O)N1CCC[C@@H](S(=O)(=O)c2ccc(N3CC(CF)(CN4CCC([C@@](CN5CCC5)(c5cccc(F)c5)[C@H]5CCC[C@@H]5NC(=O)OC)CC4)C3)cc2)C1` [compound 196]: the 50% inhibitory concentration (IC50) is less than 100 nM.

Consider `C=CC(=O)N1CCC[C@@H](S(=O)(=O)c2ccc(N3CC(CN4CCC([C@@](CN5CCC5)(c5cccc(F)c5)[C@H]5CCC[C@@H]5NC(=O)OC)CC4)C3)cc2)C1` [compound 197], for which the concentration for half-maximal inhibition (IC50) is less than 10 nM.

Compound `C=CC(=O)N1CCC[C@@H](S(=O)(=O)c2ccc(N3CC(CN4CCC([C@@](C#N)(c5cccc(F)c5)[C@H]5CCC[C@@H]5NC(=O)OC)CC4)C3)cc2)C1` [compound 201] yielded a half-maximal inhibitory concentration (IC50) of less than 500 nM.

`CC#CC(=O)N1CC[C@@H](S(=O)(=O)c2ccc(N3CC(O)(CN4CCC([C@@](CN5CCC5)(c5cccc(F)c5)[C@H]5CCC[C@@H]5NC(=O)OC)CC4)C3)c(F)c2)C1` [compound 202]: the IC50 is less than 10 nM.

As for `CC#CC(=O)N1CC(S(=O)(=O)c2ccc(N3CC(O)(CN4CCC([C@@](CN5CCC5)(c5cccc(F)c5)[C@H]5CCC[C@@H]5NC(=O)OC)CC4)C3)cc2)C1` [compound 203], the concentration for half-maximal inhibition (IC50) is less than 10 nM.

`COC(=O)N[C@H]1CCC[C@@H]1[C@](CN1CCC1)(c1cccc(F)c1)C1CCN(CC2CN(c3ccc(S(=O)(=O)[C@@H]4CCCN(C(=O)/C=C/CN5CCCCC5)C4)cc3)C2)CC1` [compound 204]: the concentration for half-maximal inhibition (IC50) is less than 50 nM.

In turn, `CC#CC(=O)N1CC(S(=O)(=O)c2ccc(N3CC(O)(CN4CCC([C@@](CNC(C)=O)(c5cccc(F)c5)[C@H]5CCC[C@@H]5NC(=O)OC)CC4)C3)cc2)C1` [compound 207] showed an IC50 of less than 100 nM.

For `C=CC(=O)N1CC[C@@H](S(=O)(=O)c2ccc(N3CC(CN4CCC([C@@](CN5CCC5)(c5cccc(F)c5)[C@H]5CCC[C@@H]5NC(=O)OC)CC4)C3)cc2CN2CC(F)C2)C1` [compound 209], the IC50 was less than 50 nM.

Compound `CC#CC(=O)N1CC[C@@H](S(=O)(=O)c2ccc(N3CC(CN4CCC([C@@](CN5CCC5)(c5cccc(F)c5)[C@H]5CCC[C@@H]5NC(=O)OC)CC4)C3)cc2CN2CC(F)C2)C1` [compound 210] yielded an IC50 of less than 50 nM.

Compound `C=CC(=O)N1CCC[C@@H](S(=O)(=O)c2ccc(N3CC(C)(CN4CCC([C@@](CN5CCC5)(c5cccc(F)c5)[C@H]5CCC[C@@H]5NC(=O)OC)CC4)C3)cc2)C1` [compound 211] had an IC50 of less than 50 nM.
